{"source": "paper PMC5218480", "about": "(PLoS ONE, 2017)", "test_system": "MV-4-11 cells", "experiment": "Gene expression microarray analysis (Affymetrix PrimeView) and GSEA", "type": "cell-based, human", "parameters": "RFU PODN (11730768_x_at) / Fold change /veh PODN (11730768_x_at) / RFU LINC00158 (11744669_a_at) / Fold change /veh LINC00158 (11744669_a_at) / RFU DUSP10 (11751237_a_at) / Fold change /veh DUSP10 (11751237_a_at) / RFU ID3 (11757404_x_at) / Fold change /veh ID3 (11757404_x_at) / RFU PLEKHG5 (11737974_s_at) / Fold change /veh PLEKHG5 (11737974_s_at) / RFU LRRC4B (11730491_at) / Fold change /veh LRRC4B (11730491_at) / RFU GIMAP4 (11747438_a_at) / Fold change /veh GIMAP4 (11747438_a_at) / RFU KRT8 (11758183_x_at) / Fold change /veh KRT8 (11758183_x_at) / RFU CNN1 (11734310_a_at) / Fold change /veh CNN1 (11734310_a_at) / RFU VPS37D (11726825_at) / Fold change /veh VPS37D (11726825_at) / RFU C10orf10 (11716522_x_at) / Fold change /veh C10orf10 (11716522_x_at) / RFU KIR2DL2 /// KIR2DL4 /// KIR2DL5A /// KIR2DL5B /// KIR2DS1 /// KIR2DS2 /// KIR2DS3 /// KIR2DS4 /// KIR3DL3 /// KIR3DL3 /// KIR3DS1 (11738374_at) / Fold change /veh KIR2DL2 /// KIR2DL4 /// KIR2DL5A /// KIR2DL5B /// KIR2DS1 /// KIR2DS2 /// KIR2DS3 /// KIR2DS4 /// KIR3DL3 /// KIR3DL3 /// KIR3DS1 (11738374_at) / RFU C1QL1 (11718748_at) / Fold change /veh C1QL1 (11718748_at) / RFU TMPRSS4 (11747572_a_at) / Fold change /veh TMPRSS4 (11747572_a_at) / RFU HAMP (11756126_x_at) / Fold change /veh HAMP (11756126_x_at) / RFU RNFT2 (11725882_a_at) / Fold change /veh RNFT2 (11725882_a_at) / RFU NR4A2 (11747474_a_at) / Fold change /veh NR4A2 (11747474_a_at) / RFU ABCC12 (11746883_a_at) / Fold change /veh ABCC12 (11746883_a_at) / RFU TMEM136 (11760407_x_at) / Fold change /veh TMEM136 (11760407_x_at) / RFU CLDN22 /// WWC2 (11732394_at) / Fold change /veh CLDN22 /// WWC2 (11732394_at) / RFU HLA-DPB1 (11760878_x_at) / Fold change /veh HLA-DPB1 (11760878_x_at) / RFU SPINT1 (11716480_a_at) / Fold change /veh SPINT1 (11716480_a_at) / RFU GAP43 (11754022_s_at) / Fold change /veh GAP43 (11754022_s_at) / RFU A4GNT (11735810_at) / Fold change /veh A4GNT (11735810_at) / RFU PRB3 (11715151_x_at) / Fold change /veh PRB3 (11715151_x_at) / RFU TUBB4B (11761932_at) / Fold change /veh TUBB4B (11761932_at) / RFU CAPN14 (11732068_a_at) / Fold change /veh CAPN14 (11732068_a_at) / RFU TMCC2 (11721928_a_at) / Fold change /veh TMCC2 (11721928_a_at) / RFU IRGQ (11745062_a_at) / Fold change /veh IRGQ (11745062_a_at) / RFU FAM174B (11720279_a_at) / Fold change /veh FAM174B (11720279_a_at) / RFU TMPRSS4 (11748680_a_at) / Fold change /veh TMPRSS4 (11748680_a_at) / RFU FAM212B (11763350_a_at) / Fold change /veh FAM212B (11763350_a_at) / RFU PLEKHG5 (11743358_a_at) / Fold change /veh PLEKHG5 (11743358_a_at) / RFU ZSCAN30 (11745921_a_at) / Fold change /veh ZSCAN30 (11745921_a_at) / RFU CMKLR1 (11741424_a_at) / Fold change /veh CMKLR1 (11741424_a_at) / RFU LOC101060620 /// MAPK8IP1 (11723275_at) / Fold change /veh LOC101060620 /// MAPK8IP1 (11723275_at) / RFU SPTSSB (11747773_x_at) / Fold change /veh SPTSSB (11747773_x_at) / RFU PRSS12 (11739890_at) / Fold change /veh PRSS12 (11739890_at) / RFU BIN1 (11741810_x_at) / Fold change /veh BIN1 (11741810_x_at) / RFU WNT11 (11732464_a_at) / Fold change /veh WNT11 (11732464_a_at) / RFU C10orf10 (11716521_a_at) / Fold change /veh C10orf10 (11716521_a_at) / RFU C5orf56 (11738089_at) / Fold change /veh C5orf56 (11738089_at) / RFU CYB561 (11721691_x_at) / Fold change /veh CYB561 (11721691_x_at) / RFU ANKRD19P (11752326_a_at) / Fold change /veh ANKRD19P (11752326_a_at) / RFU OR2T12 /// OR2T33 /// OR2T8 (11738714_s_at) / Fold change /veh OR2T12 /// OR2T33 /// OR2T8 (11738714_s_at) / RFU VCAN (11748164_a_at) / Fold change /veh VCAN (11748164_a_at) / RFU JSRP1 (11732532_at) / Fold change /veh JSRP1 (11732532_at) / RFU KRTAP10-11 (11738290_x_at) / Fold change /veh KRTAP10-11 (11738290_x_at) / RFU MYO3A (11730013_a_at) / Fold change /veh MYO3A (11730013_a_at) / RFU EBF3 (11725865_a_at) / Fold change /veh EBF3 (11725865_a_at) / RFU CAMK2N1 (11719241_x_at) / Fold change /veh CAMK2N1 (11719241_x_at) / RFU C5orf56 (11738088_a_at) / Fold change /veh C5orf56 (11738088_a_at) / RFU OLFML3 (11715873_a_at) / Fold change /veh OLFML3 (11715873_a_at) / RFU LOC100653217 /// NTM (11731650_a_at) / Fold change /veh LOC100653217 /// NTM (11731650_a_at) / RFU MAPK11 (11762145_a_at) / Fold change /veh MAPK11 (11762145_a_at) / RFU FIZ1 (11724087_x_at) / Fold change /veh FIZ1 (11724087_x_at) / RFU OASL (11726364_x_at) / Fold change /veh OASL (11726364_x_at) / RFU SOX15 (11748057_x_at) / Fold change /veh SOX15 (11748057_x_at) / RFU CD79A (11719716_a_at) / Fold change /veh CD79A (11719716_a_at) / RFU HIST1H1D (11736915_at) / Fold change /veh HIST1H1D (11736915_at) / RFU CASKIN2 (11723855_a_at) / Fold change /veh CASKIN2 (11723855_a_at) / RFU LOC730098 (11760151_x_at) / Fold change /veh LOC730098 (11760151_x_at) / RFU OR4N2 (11742367_at) / Fold change /veh OR4N2 (11742367_at) / RFU PRRT2 (11749266_a_at) / Fold change /veh PRRT2 (11749266_a_at) / RFU SNX32 (11753110_a_at) / Fold change /veh SNX32 (11753110_a_at) / RFU CDHR5 (11726645_a_at) / Fold change /veh CDHR5 (11726645_a_at) / RFU RCAN1 (11760418_a_at) / Fold change /veh RCAN1 (11760418_a_at) / RFU FAM167A (11723789_a_at) / Fold change /veh FAM167A (11723789_a_at) / RFU FAM26E (11764081_at) / Fold change /veh FAM26E (11764081_at) / RFU ISYNA1 (11749810_s_at) / Fold change /veh ISYNA1 (11749810_s_at) / RFU ACY1 (11761880_at) / Fold change /veh ACY1 (11761880_at) / RFU 11764098_at / Fold change /veh 11764098_at / RFU SAMD14 (11745864_x_at) / Fold change /veh SAMD14 (11745864_x_at) / RFU NPB (11741838_a_at) / Fold change /veh NPB (11741838_a_at) / RFU TMPRSS6 (11731388_a_at) / Fold change /veh TMPRSS6 (11731388_a_at) / RFU KRTAP10-2 (11738614_at) / Fold change /veh KRTAP10-2 (11738614_at) / RFU ARHGAP8 /// PRR5-ARHGAP8 (11727945_x_at) / Fold change /veh ARHGAP8 /// PRR5-ARHGAP8 (11727945_x_at) / RFU KRTAP5-7 /// NADSYN1 (11734609_at) / Fold change /veh KRTAP5-7 /// NADSYN1 (11734609_at) / RFU RASL12 (11751679_a_at) / Fold change /veh RASL12 (11751679_a_at) / RFU CDKN2B (11736163_a_at) / Fold change /veh CDKN2B (11736163_a_at) / RFU PRF1 (11729649_at) / Fold change /veh PRF1 (11729649_at) / RFU, ZNF638 /// ZNF638-IT1 / Fold change vs veh, ZNF638 /// ZNF638-IT1 / RFU, PANK3 / Fold change vs veh, PANK3 / RFU, SH3YL1 / Fold change vs veh, SH3YL1 / RFU, ZEB2 / Fold change vs veh, ZEB2 / RFU, NRIP1 / Fold change vs veh, NRIP1 / RFU, PTTG1IP / Fold change vs veh, PTTG1IP / RFU, CAPN2 / Fold change vs veh, CAPN2 / RFU, MED14 / Fold change vs veh, MED14 / RFU, SNORA58 / Fold change vs veh, SNORA58 / RFU, C1orf63 / Fold change vs veh, C1orf63 / RFU, LRRFIP1 / Fold change vs veh, LRRFIP1 / RFU, NDUFAF7 / Fold change vs veh, NDUFAF7 / RFU, SLC12A2 / Fold change vs veh, SLC12A2 / RFU, IBTK / Fold change vs veh, IBTK / RFU, ESF1 / Fold change vs veh, ESF1 / Fold change vs veh, TMEM50B / RFU, TAOK1 / Fold change vs veh, TAOK1 / RFU, ACBD3 / Fold change vs veh, ACBD3 / RFU, TMA16 / Fold change vs veh, TMA16 / RFU, RWDD3 / Fold change vs veh, RWDD3 / RFU, BCAT1 / Fold change vs veh, BCAT1 / RFU, EDEM3 / Fold change vs veh, EDEM3 / RFU, TMEM33 / Fold change vs veh, TMEM33 / RFU, WDR75 / Fold change vs veh, WDR75 / RFU, AHCTF1 / Fold change vs veh, AHCTF1 / RFU, TFRC / Fold change vs veh, TFRC / RFU, ZDHHC17 / Fold change vs veh, ZDHHC17 / RFU, NOM1 / Fold change vs veh, NOM1 / RFU, ARL8B / Fold change vs veh, ARL8B / RFU, ZBTB11 / Fold change vs veh, ZBTB11 / RFU, TAMM41 / Fold change vs veh, TAMM41 / RFU, KIAA1704 /// LOC100996395 / Fold change vs veh, KIAA1704 /// LOC100996395 / RFU, ING1 / Fold change vs veh, ING1 / RFU, TRMT61B / Fold change vs veh, TRMT61B / RFU, FUBP3 / Fold change vs veh, FUBP3 / RFU, TP53 / Fold change vs veh, TP53 / RFU, TNKS2 / Fold change vs veh, TNKS2 / RFU, ZFP14 / Fold change vs veh, ZFP14 / RFU, ACTR2 / Fold change vs veh, ACTR2 / RFU, PPP3R1 / Fold change vs veh, PPP3R1 / RFU, PIK3R1 / Fold change vs veh, PIK3R1 / RFU, HNRNPA1 / Fold change vs veh, HNRNPA1 / RFU, RNF170 / Fold change vs veh, RNF170 / RFU, ZNF28 / Fold change vs veh, ZNF28 / RFU, RNGTT / Fold change vs veh, RNGTT / RFU, OGT / Fold change vs veh, OGT / RFU, BRD1 / Fold change vs veh, BRD1 / RFU, MARS / Fold change vs veh, MARS / RFU, ZNF655 / Fold change vs veh, ZNF655 / RFU, FAHD1 / Fold change vs veh, FAHD1 / RFU, BDP1 / Fold change vs veh, BDP1 / RFU, LRRCC1 / Fold change vs veh, LRRCC1 / RFU, ARID1A / Fold change vs veh, ARID1A / RFU, ZNF146 / Fold change vs veh, ZNF146 / RFU, ZNF330 / Fold change vs veh, ZNF330 / RFU, GPN3 / Fold change vs veh, GPN3 / RFU, C9orf123 / Fold change vs veh, C9orf123 / RFU, N4BP2L2 / Fold change vs veh, N4BP2L2 / RFU, ARFIP1 / Fold change vs veh, ARFIP1 / RFU, FAM179B / Fold change vs veh, FAM179B / RFU, BCL10 / Fold change vs veh, BCL10 / RFU, UHRF1BP1L / Fold change vs veh, UHRF1BP1L / RFU, BET1 / Fold change vs veh, BET1 / RFU, CNOT2 / Fold change vs veh, CNOT2 / RFU, ZNF268 / Fold change vs veh, ZNF268 / Fold change vs veh, ZNF507 / RFU, DGCR2 / Fold change vs veh, DGCR2 / RFU, WDSUB1 / Fold change vs veh, WDSUB1 / Fold change vs veh, HSP90B1 /// MIR3652 / RFU, ADSS / Fold change vs veh, ADSS / RFU, GK / Fold change vs veh, GK / RFU, ZNF148 / Fold change vs veh, ZNF148 / RFU, TAF9 / Fold change vs veh, TAF9 / RFU, SLC1A5 / Fold change vs veh, SLC1A5 / RFU, SLMO2 / Fold change vs veh, SLMO2 / RFU, ABCC4 / Fold change vs veh, ABCC4 / RFU, LOC101060439 /// RAP1B / Fold change vs veh, LOC101060439 /// RAP1B / RFU, RFX7 / Fold change vs veh, RFX7 / RFU, GTPBP10 / Fold change vs veh, GTPBP10 / RFU, CNEP1R1 / Fold change vs veh, CNEP1R1 / RFU, BIVM-ERCC5 /// ERCC5 / Fold change vs veh, BIVM-ERCC5 /// ERCC5 / RFU, ILF3 / Fold change vs veh, ILF3 / RFU 11762660_at / Fold change /veh 11762660_at / RFU VCAN (11757783_s_at) / Fold change /veh VCAN (11757783_s_at) / RFU DDX43 (11728927_at) / Fold change /veh DDX43 (11728927_at) / RFU KRT8 (11758188_x_at) / Fold change /veh KRT8 (11758188_x_at) / RFU NKD1 (11759106_at) / Fold change /veh NKD1 (11759106_at) / RFU SRD5A1 (11742802_a_at) / Fold change /veh SRD5A1 (11742802_a_at) / RFU TPSAB1 /// TPSB2 (11721975_s_at) / Fold change /veh TPSAB1 /// TPSB2 (11721975_s_at) / RFU GSTM3 (11746129_a_at) / Fold change /veh GSTM3 (11746129_a_at) / RFU IL23R (11737362_x_at) / Fold change /veh IL23R (11737362_x_at) / RFU TMEM51 (11727254_a_at) / Fold change /veh TMEM51 (11727254_a_at) / RFU PIWIL2 (11732686_x_at) / Fold change /veh PIWIL2 (11732686_x_at) / RFU ORM1 (11744905_x_at) / Fold change /veh ORM1 (11744905_x_at) / RFU CCDC152 (11743942_at) / Fold change /veh CCDC152 (11743942_at) / RFU ECM1 (11717891_a_at) / Fold change /veh ECM1 (11717891_a_at) / RFU IL23R (11748794_a_at) / Fold change /veh IL23R (11748794_a_at) / RFU TNFAIP8L3 (11732012_x_at) / Fold change /veh TNFAIP8L3 (11732012_x_at) / RFU MBOAT4 (11741988_at) / Fold change /veh MBOAT4 (11741988_at) / RFU 11764193_at / Fold change /veh 11764193_at / RFU TMEM53 (11763286_at) / Fold change /veh TMEM53 (11763286_at) / RFU MAGEB2 (11727129_at) / Fold change /veh MAGEB2 (11727129_at) / RFU TMEM200A (11744735_a_at) / Fold change /veh TMEM200A (11744735_a_at) / RFU CCDC152 (11751479_a_at) / Fold change /veh CCDC152 (11751479_a_at) / RFU FAM211A (11726209_a_at) / Fold change /veh FAM211A (11726209_a_at) / RFU RGS16 (11746705_a_at) / Fold change /veh RGS16 (11746705_a_at) / RFU VCAN (11755009_s_at) / Fold change /veh VCAN (11755009_s_at) / RFU RHOB (11743442_s_at) / Fold change /veh RHOB (11743442_s_at) / RFU RGS16 (11720943_a_at) / Fold change /veh RGS16 (11720943_a_at) / RFU RGS16 (11720944_at) / Fold change /veh RGS16 (11720944_at) / RFU, VPS4B / Fold change vs veh, VPS4B / RFU, CREB1 / Fold change vs veh, CREB1 / RFU, DNAJC13 / Fold change vs veh, DNAJC13 / RFU, GNAQ / Fold change vs veh, GNAQ / RFU, CDK5R1 / Fold change vs veh, CDK5R1 / RFU, ZRANB3 / Fold change vs veh, ZRANB3 / RFU, CUL4A / Fold change vs veh, CUL4A / RFU, CCNY / Fold change vs veh, CCNY / RFU, UFL1 / Fold change vs veh, UFL1 / RFU, COG3 / Fold change vs veh, COG3 / RFU, DIAPH2 / Fold change vs veh, DIAPH2 / RFU, SKA2 / Fold change vs veh, SKA2 / RFU, AFF3 / Fold change vs veh, AFF3 / RFU, LMF1 / Fold change vs veh, LMF1 / RFU, IPO11 / Fold change vs veh, IPO11 / RFU, DFFB / Fold change vs veh, DFFB / RFU, FOXP1 / Fold change vs veh, FOXP1 / RFU, CARD8 / Fold change vs veh, CARD8 / RFU, STRN3 / Fold change vs veh, STRN3 / RFU, ADK / Fold change vs veh, ADK / RFU, RASSF2 / Fold change vs veh, RASSF2 / RFU, WIPF1 / Fold change vs veh, WIPF1 / RFU, LARP1B / Fold change vs veh, LARP1B / RFU, RASA1 / Fold change vs veh, RASA1 / RFU, RB1 / Fold change vs veh, RB1 / RFU, PPFIA1 / Fold change vs veh, PPFIA1 / RFU, MAT2A / Fold change vs veh, MAT2A / RFU, CCT5 / Fold change vs veh, CCT5 / RFU, WDR92 / Fold change vs veh, WDR92 / RFU, CUX1 / Fold change vs veh, CUX1 / RFU, TTC7A / Fold change vs veh, TTC7A / RFU, TMEM135 / Fold change vs veh, TMEM135 / RFU, DEPTOR / Fold change vs veh, DEPTOR / RFU, CPM / Fold change vs veh, CPM / RFU, DNAJB6 / Fold change vs veh, DNAJB6 / RFU, CACNA2D3 / Fold change vs veh, CACNA2D3 / RFU, DTX4 / Fold change vs veh, DTX4 / RFU, TFCP2 / Fold change vs veh, TFCP2 / RFU, GMCL1 /// GMCL1P1 / Fold change vs veh, GMCL1 /// GMCL1P1 / RFU, AEBP2 / Fold change vs veh, AEBP2 / RFU, SNHG1 /// SNORD22 /// SNORD25 /// SNORD26 /// SNORD27 /// SNORD28 /// SNORD29 /// SNORD31 / Fold change vs veh, SNHG1 /// SNORD22 /// SNORD25 /// SNORD26 /// SNORD27 /// SNORD28 /// SNORD29 /// SNORD31 / Fold change (Aza/veh), C12orf56 (ProbeSet 11735607_a_at) / Fold change (ACY-1035/veh), C12orf56 (ProbeSet 11735607_a_at) / Fold change (Aza/veh), FGFR1OP (ProbeSet 11751329_s_at) / Fold change (ACY-1035/veh), FGFR1OP (ProbeSet 11751329_s_at) / Fold change (Aza/veh), VPS36 (ProbeSet 11739960_a_at) / Fold change (ACY-1035/veh), VPS36 (ProbeSet 11739960_a_at) / RFU SYPL1 (11715823_x_at) / Fold change /veh SYPL1 (11715823_x_at) / RFU IGFBP7 (11715501_s_at) / Fold change /veh IGFBP7 (11715501_s_at) / RFU REEP3 (11722064_at) / Fold change /veh REEP3 (11722064_at) / RFU IGLL1 (11728026_x_at) / Fold change /veh IGLL1 (11728026_x_at): dose or concentration left out as unconfirmed", "details": "ProbeSet 11734782_x_at; LIST D"}
{"smiles": "Nc1ncn([C@@H]2O[C@H](CO)[C@@H](O)[C@H]2O)c(=O)n1", "note": "[azacitidine]", "values": [{"measurement": "Fold change vs veh, WDR92", "result": 0.69}]}
